Test results: the supplement of paper PMC11451515

Tested on: P12-Ichikawa
Experiment: cell viability relative to DMSO control; higher = less cytotoxic
Conditions: 48 h
Outline: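 Library compounds in DMSO were pin-dosed in an 11-point threefold series (47 μM to 0.79 nM) onto leukemia cells in 1536-well plates (5 μl). Plates held 500 cells/well of NOMO1 or SEM or 1000 cells/well of P12-Ichikawa, each adapted for at least four passages in each medium. Luminescence was read with CellTiter-Glo One after 48 h at 37°C. Viability means the per-plate percentage relative to DMSO wells, using cell-free wells as background.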

[1] = HPLM + 10% dialyzed FBS, 0.000781 µM
[2] = HPLM + 10% dialyzed FBS, 0.00234 µM
[3] = HPLM + 10% dialyzed FBS, 0.00702 µM
[4] = HPLM + 10% dialyzed FBS, 0.0211 µM
[5] = HPLM + 10% dialyzed FBS, 0.0632 µM
[6] = HPLM + 10% dialyzed FBS, 0.19 µM
[7] = HPLM + 10% dialyzed FBS, 0.569 µM
[8] = HPLM + 10% dialyzed FBS, 1.71 µM
[9] = HPLM + 10% dialyzed FBS, 5.12 µM
[10] = HPLM + 10% dialyzed FBS, 15.4 µM
[11] = HPLM + 10% dialyzed FBS, 46.1 µM
[12] = RPMI 5 mM glucose + 10% FBS, 0.000781 µM
[13] = RPMI 5 mM glucose + 10% FBS, 0.00234 µM
[14] = RPMI 5 mM glucose + 10% FBS, 0.00702 µM
[15] = RPMI 5 mM glucose + 10% FBS, 0.0211 µM
[16] = RPMI 5 mM glucose + 10% FBS, 0.0632 µM
[17] = RPMI 5 mM glucose + 10% FBS, 0.19 µM
[18] = RPMI 5 mM glucose + 10% FBS, 0.569 µM
[19] = RPMI 5 mM glucose + 10% FBS, 1.71 µM
[20] = RPMI 5 mM glucose + 10% FBS, 5.12 µM
[21] = RPMI 5 mM glucose + 10% FBS, 15.4 µM
[22] = RPMI 5 mM glucose + 10% FBS, 46.1 µM
[23] = RPMI 5 mM glucose + 10% dialyzed FBS, 0.000781 µM
[24] = RPMI 5 mM glucose + 10% dialyzed FBS, 0.00234 µM
[25] = RPMI 5 mM glucose + 10% dialyzed FBS, 0.00702 µM
[26] = RPMI 5 mM glucose + 10% dialyzed FBS, 0.0211 µM
[27] = RPMI 5 mM glucose + 10% dialyzed FBS, 0.0632 µM
[28] = RPMI 5 mM glucose + 10% dialyzed FBS, 0.19 µM
[29] = RPMI 5 mM glucose + 10% dialyzed FBS, 0.569 µM
[30] = RPMI 5 mM glucose + 10% dialyzed FBS, 1.71 µM
[31] = RPMI 5 mM glucose + 10% dialyzed FBS, 5.12 µM
[32] = RPMI 5 mM glucose + 10% dialyzed FBS, 15.4 µM
[33] = RPMI 5 mM glucose + 10% dialyzed FBS, 46.1 µM

| Structure (SMILES) | cell viability [1] | cell viability [2] | cell viability [3] | cell viability [4] | cell viability [5] | cell viability [6] | cell viability [7] | cell viability [8] | cell viability [9] | cell viability [10] | cell viability [11] | cell viability [12] | cell viability [13] | cell viability [14] | cell viability [15] | cell viability [16] | cell viability [17] | cell viability [18] | cell viability [19] | cell viability [20] | cell viability [21] | cell viability [22] | cell viability [23] | cell viability [24] | cell viability [25] | cell viability [26] | cell viability [27] | cell viability [28] | cell viability [29] | cell viability [30] | cell viability [31] | cell viability [32] | cell viability [33] |
| --- | --- | --- | --- | --- | --- | --- | --- | --- | --- | --- | --- | --- | --- | --- | --- | --- | --- | --- | --- | --- | --- | --- | --- | --- | --- | --- | --- | --- | --- | --- | --- | --- | --- |
| O=C(O)c1cccc(-c2noc(-c3ccccc3F)n2)c1 | 99.7% | 106% | 104% | 100% | 102% | 105% | 102% | 98.6% | 101% | 100% | 95.3% | 96.5% | 98.2% | 97.5% | 106% | 106% | 106% | 101% | 98.7% | 90.9% | 93% | 92.7% | 102% | 105% | 94.9% | 103% | 103% | 97.1% | 95.1% | 102% | 90.6% | 102% | 98.7% |
| CN1CCN(CC1)C2=CC3=C([NH]C(=N3)C/4=C(\N)C5=C(F)C=CC=C5NC4=O)C=C2 | 103% | 106% | 109% | 99.2% | 88.7% | 99.7% | 96.3% | 95% | 73% | 65.5% | 37% | 107% | 103% | 111% | 112% | 88.8% | 104% | 91.9% | 89.2% | 60.2% | 45.2% | 30.4% | 112% | 112% | 106% | 107% | 102% | 107% | 97.8% | 91.3% | 67.1% | 46.3% | 29.4% |
| CCn1c(C(=O)N(C2CC2)C2CC2)cc2c3c(ncn3C)c(Nc3cc(C)n(C)n3)nc21 | 88.3% | 99.8% | 99.5% | 104% | 109% | 117% | 110% | 108% | 107% | 107% | 86.5% | 92.7% | 116% | 108% | 108% | 118% | 107% | 111% | 110% | 105% | 112% | 91.7% | 90.4% | 100% | 97.6% | 96.4% | 102% | 97.2% | 98% | 98.6% | 102% | 107% | 87.6% |
| COC(=O)[C@H](Cc1ccccc1)NC(=O)[C@@H](N)CC(=O)O | 112% | 119% | 120% | 115% | 119% | 108% | 112% | 112% | 106% | 101% | 100% | 110% | 110% | 113% | 119% | 115% | 125% | 107% | 109% | 102% | 102% | 108% | 114% | 109% | 125% | 112% | 120% | 110% | 112% | 110% | 107% | 104% | 101% |
| COc1cc2c(cc1OC)CN(CCc1ccc(NC(=O)c3cccc4c(=O)c5cccc(OC)c5[nH]c34)cc1)CC2 | 101% | 105% | 107% | 118% | 111% | 112% | 123% | 21.1% | 11.5% | 5% | 3.03% | 96.9% | 101% | 102% | 111% | 109% | 112% | 113% | 119% | 25.2% | 5.14% | 2.82% | 104% | 109% | 112% | 111% | 113% | 121% | 110% | 103% | 20% | 6.37% | 2.85% |
| NC[C@H](O)c1ccc(O)c(O)c1 | 98.9% | 100% | 99% | 103% | 98.8% | 102% | 97.4% | 92.4% | 92.8% | 92.6% | 83.5% | 101% | 99.5% | 94.1% | 98.9% | 105% | 96.7% | 97.6% | 92.3% | 91.2% | 90.2% | 84.4% | 89.9% | 96% | 99.9% | 88.1% | 96.1% | 97.6% | 86.3% | 93.6% | 92% | 86.5% | 81.5% |
| CC(=O)N(O)CCCCCNC(=O)CCC(=O)N(O)CCCCCNC(=O)CCC(=O)N(O)CCCCCN.C[S+](=O)([O-])O | 93.5% | 76.5% | 40.7% | 10.3% | 11% | 11.2% | 10.8% | 9.88% | 9.31% | 9.06% | 9.61% | 98.4% | 110% | 99% | 99% | 54.9% | 13.4% | 13.2% | 11.6% | 16.4% | 11.4% | 12.3% | 97.8% | 108% | 114% | 99.2% | 79.9% | 18.4% | 20.7% | 16.7% | 15.2% | 16.1% | 22% |
| Cc1cccc(-c2[nH]c(C(C)(C)C)nc2-c2ccc3nccnc3c2)n1 | 120% | 124% | 124% | 126% | 125% | 120% | 118% | 110% | 112% | 112% | 48% | 122% | 122% | 115% | 116% | 124% | 121% | 108% | 119% | 106% | 106% | 81.4% | – | – | – | – | – | – | – | – | – | – | – |
